Data reported in patent US20230183243A1, “HETEROARYL DERIVATIVES AND PHARMACEUTICAL COMPOSITION COMPRISING SAME AS ACTIVE INGREDIENT” (VORONOI INC., priority 2019, published 2023).
pIC50: −log10 of the molar value.

Key:
[1] = target: T1, ABL1(F317L)-nonphosphorylated (Homo sapiens, UniProt P00519, F317L); experiment: ScanMAX Kinase panel (DiscoverX); assay type: binding; conditions: read-out: % Cont @ 1 μM
T1 construct: purchased DiscoverX Corp. (ScanMAX Kinase panel, commissioned)
Method: (§1) Specifically, the enzyme (kinase) selectivity of the compound of Example 7 selected from the Example compounds of the present invention was measured by commissioning DiscoverX Corp., and an experiment was performed using a panel for ScanMAX™ Kinase analysis.
(§2) In this case, the concentration of a drug treated with the enzyme was set at 1 μM in DMSO, and percent control (% control) was defined in the same manner as in the following Expression 1.
(§3) (Example compound−Positive control)/(Negative control−Positive control)×100 [Expression 1]
(§4) Wherein the positive control represents a compound having a percent control of 0%, and the negative control represents a compound having a percent control of 100% in DMSO. For the enzyme selectivity of the present invention, the compound was also judged to have activity against the corresponding enzyme when the percent control for each of the enzymes was <30% (i.e., less than 30%).
(§5) Further, to evaluate the inhibitory activity of the compound according to the present invention against more enzymes, an experiment was performed as follows. Specifically, the enzyme (kinase) selectivity of the compound of Example 64 selected from the Example compounds of the present invention was measured by commissioning DiscoverX Corp., and an experiment was performed using a panel for ScanMAX™ Kinase analysis. In this case, the concentration of a drug treated with the enzyme was set at 1 μM in DMSO, and the percent control (% control) were defined in the same manner as in the following Expression 1.
as §4, with “<35%” for “<30%”, “35%).” for “30%).”

GRK4 = target: T2, GRK4 (Homo sapiens, UniProt P32298); experiment: ScanMAX Kinase panel (DiscoverX); assay type: binding; conditions: read-out: % Cont @ 1 μM
T2 construct: purchased DiscoverX Corp. (ScanMAX Kinase panel, commissioned)
Method: as §1, §2, §3, §4, §5
as §4, with “<35%” for “<30%”, “35%).” for “30%).”

JNK1 = target: T3, JNK1 (Homo sapiens, UniProt P45983); experiment: ScanMAX Kinase panel (DiscoverX); assay type: binding
T3 construct: purchased DiscoverX Corp. (ScanMAX Kinase panel, commissioned)
Method: as §1, §2, §3, §4, §5
as §4, with “<35%” for “<30%”, “35%).” for “30%).”

JNK2 = target: T4, JNK2 (Homo sapiens, UniProt P45984); experiment: ScanMAX Kinase panel (DiscoverX); assay type: binding
T4 construct: purchased DiscoverX Corp. (ScanMAX Kinase panel, commissioned)
T4 sequence (P45984 whole entry): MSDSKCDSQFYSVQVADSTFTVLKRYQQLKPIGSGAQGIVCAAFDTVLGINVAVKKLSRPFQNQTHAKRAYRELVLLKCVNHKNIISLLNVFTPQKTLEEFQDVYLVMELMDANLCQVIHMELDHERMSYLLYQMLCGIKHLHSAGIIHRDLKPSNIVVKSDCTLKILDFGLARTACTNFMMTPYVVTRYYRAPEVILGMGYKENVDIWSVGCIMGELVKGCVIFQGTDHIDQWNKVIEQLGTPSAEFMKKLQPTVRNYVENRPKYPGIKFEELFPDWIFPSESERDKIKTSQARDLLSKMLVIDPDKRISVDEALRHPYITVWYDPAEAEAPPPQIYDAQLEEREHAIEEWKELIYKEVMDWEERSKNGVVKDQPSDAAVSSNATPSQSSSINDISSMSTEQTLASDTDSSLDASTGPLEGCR
Method: as §1, §2, §3, §4, §5
as §4, with “<35%” for “<30%”, “35%).” for “30%).”

JNK3 = target: T5, JNK3 (Homo sapiens, UniProt P53779); experiment: ScanMAX Kinase panel (DiscoverX); assay type: binding
T5 construct: purchased DiscoverX Corp. (ScanMAX Kinase panel, commissioned)
Method: as §1, §2, §3, §4, §5
as §4, with “<35%” for “<30%”, “35%).” for “30%).”

LRRK2(G2019S) = target: T6, LRRK2(G2019S) (Homo sapiens, UniProt Q5S007, G2019S); experiment: ScanMAX Kinase panel (DiscoverX); assay type: binding; conditions: read-out: % Cont @ 1 μM
T6 construct: purchased DiscoverX Corp. (ScanMAX Kinase panel, commissioned)
T6 sequence (Q5S007 whole entry G2019S): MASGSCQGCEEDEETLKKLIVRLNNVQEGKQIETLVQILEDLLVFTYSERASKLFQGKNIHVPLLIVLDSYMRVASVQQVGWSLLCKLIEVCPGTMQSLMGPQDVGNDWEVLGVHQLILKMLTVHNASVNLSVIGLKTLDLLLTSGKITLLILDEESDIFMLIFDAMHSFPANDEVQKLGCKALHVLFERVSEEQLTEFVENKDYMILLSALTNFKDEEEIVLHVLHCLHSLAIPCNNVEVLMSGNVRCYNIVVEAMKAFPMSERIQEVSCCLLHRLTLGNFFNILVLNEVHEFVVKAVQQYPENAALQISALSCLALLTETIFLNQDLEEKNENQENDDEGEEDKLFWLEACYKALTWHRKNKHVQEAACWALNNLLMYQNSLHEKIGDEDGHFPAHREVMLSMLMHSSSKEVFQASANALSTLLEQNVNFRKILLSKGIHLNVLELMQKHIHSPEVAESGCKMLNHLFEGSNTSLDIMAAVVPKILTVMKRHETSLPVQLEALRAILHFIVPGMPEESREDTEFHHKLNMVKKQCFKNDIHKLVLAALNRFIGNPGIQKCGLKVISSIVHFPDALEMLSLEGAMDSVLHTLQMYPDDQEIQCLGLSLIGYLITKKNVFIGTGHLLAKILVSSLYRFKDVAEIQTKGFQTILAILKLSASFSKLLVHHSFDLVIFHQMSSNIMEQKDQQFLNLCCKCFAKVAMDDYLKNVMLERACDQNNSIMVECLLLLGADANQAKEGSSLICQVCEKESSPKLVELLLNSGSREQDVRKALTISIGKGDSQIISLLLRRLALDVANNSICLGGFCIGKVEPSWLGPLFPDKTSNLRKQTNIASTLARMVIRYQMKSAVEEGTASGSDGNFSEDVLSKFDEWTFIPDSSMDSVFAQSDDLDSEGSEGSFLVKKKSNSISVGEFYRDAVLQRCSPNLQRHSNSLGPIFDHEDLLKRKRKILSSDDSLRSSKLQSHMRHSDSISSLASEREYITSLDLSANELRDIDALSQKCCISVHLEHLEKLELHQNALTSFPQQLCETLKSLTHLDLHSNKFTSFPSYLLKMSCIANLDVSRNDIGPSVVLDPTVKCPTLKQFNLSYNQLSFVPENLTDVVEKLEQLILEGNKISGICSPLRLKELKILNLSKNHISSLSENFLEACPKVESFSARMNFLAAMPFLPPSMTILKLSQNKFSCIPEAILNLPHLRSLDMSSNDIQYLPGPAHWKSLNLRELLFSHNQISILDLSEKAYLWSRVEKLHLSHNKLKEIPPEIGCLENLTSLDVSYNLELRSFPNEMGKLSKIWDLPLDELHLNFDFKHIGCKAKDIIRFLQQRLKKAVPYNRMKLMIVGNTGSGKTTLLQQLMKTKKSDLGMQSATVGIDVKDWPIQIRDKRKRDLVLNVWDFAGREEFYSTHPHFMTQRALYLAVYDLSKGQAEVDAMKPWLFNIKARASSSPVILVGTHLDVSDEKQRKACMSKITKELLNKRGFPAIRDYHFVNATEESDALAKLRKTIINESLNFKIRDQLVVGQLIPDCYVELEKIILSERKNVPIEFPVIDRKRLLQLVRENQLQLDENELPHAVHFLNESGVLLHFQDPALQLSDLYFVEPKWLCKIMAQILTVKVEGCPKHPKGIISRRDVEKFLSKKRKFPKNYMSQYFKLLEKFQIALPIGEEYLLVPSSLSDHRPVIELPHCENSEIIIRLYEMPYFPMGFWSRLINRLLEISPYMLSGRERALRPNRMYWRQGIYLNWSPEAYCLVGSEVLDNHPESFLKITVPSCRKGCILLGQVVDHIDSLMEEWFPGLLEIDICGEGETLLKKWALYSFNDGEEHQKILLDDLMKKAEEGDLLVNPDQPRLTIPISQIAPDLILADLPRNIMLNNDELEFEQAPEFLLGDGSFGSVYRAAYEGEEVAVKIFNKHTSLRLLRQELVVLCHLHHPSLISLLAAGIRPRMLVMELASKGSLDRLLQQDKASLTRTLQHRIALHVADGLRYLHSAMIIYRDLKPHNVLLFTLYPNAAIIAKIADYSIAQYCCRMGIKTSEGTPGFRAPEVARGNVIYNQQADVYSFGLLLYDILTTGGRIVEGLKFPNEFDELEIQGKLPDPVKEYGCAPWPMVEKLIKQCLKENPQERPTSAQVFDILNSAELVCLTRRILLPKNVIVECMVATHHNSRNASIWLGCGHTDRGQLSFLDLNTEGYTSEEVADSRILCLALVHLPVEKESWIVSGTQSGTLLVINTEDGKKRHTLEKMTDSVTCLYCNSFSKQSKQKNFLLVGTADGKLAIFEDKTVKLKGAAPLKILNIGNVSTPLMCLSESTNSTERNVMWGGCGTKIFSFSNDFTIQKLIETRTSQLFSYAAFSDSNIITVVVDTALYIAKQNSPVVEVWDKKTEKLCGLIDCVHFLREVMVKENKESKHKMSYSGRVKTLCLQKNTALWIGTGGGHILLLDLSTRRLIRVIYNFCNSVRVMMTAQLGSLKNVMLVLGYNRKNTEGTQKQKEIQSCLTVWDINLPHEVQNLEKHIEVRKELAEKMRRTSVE
Method: as §1, §2, §3, §4, §5
as §4, with “<35%” for “<30%”, “35%).” for “30%).”

MAPKAPK2 = target: T7, MAPKAPK2 (Homo sapiens, UniProt P49137); experiment: ScanMAX Kinase panel (DiscoverX); assay type: binding; conditions: read-out: % Cont @ 1 μM
T7 construct: purchased DiscoverX Corp. (ScanMAX Kinase panel, commissioned)
T7 sequence (P49137 whole entry): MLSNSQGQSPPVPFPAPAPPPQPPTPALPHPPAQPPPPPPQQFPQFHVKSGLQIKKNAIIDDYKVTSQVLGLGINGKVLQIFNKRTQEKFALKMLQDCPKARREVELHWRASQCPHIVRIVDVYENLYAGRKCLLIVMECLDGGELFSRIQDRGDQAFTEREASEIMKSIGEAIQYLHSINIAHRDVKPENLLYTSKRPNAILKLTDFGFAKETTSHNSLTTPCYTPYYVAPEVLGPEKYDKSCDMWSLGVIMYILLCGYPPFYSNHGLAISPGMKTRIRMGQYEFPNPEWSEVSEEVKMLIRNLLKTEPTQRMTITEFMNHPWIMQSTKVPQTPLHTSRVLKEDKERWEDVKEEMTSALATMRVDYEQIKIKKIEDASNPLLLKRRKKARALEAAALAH
Method: as §1, §2, §3, §4, §5
as §4, with “<35%” for “<30%”, “35%).” for “30%).”

RIPK5 = target: T8, RIPK5 (Homo sapiens, UniProt Q6XUX3); experiment: ScanMAX Kinase panel (DiscoverX); assay type: binding; conditions: read-out: % Cont @ 1 μM
T8 construct: purchased DiscoverX Corp. (ScanMAX Kinase panel, commissioned)
Method: as §1, §2, §3, §4, §5
as §4, with “<35%” for “<30%”, “35%).” for “30%).”

SRPK3 = target: T9, SRPK3 (Homo sapiens, UniProt Q9UPE1); experiment: ScanMAX Kinase panel (DiscoverX); assay type: binding; conditions: read-out: % Cont @ 1 μM
T9 construct: purchased DiscoverX Corp. (ScanMAX Kinase panel, commissioned)
T9 sequence (Q9UPE1 whole entry): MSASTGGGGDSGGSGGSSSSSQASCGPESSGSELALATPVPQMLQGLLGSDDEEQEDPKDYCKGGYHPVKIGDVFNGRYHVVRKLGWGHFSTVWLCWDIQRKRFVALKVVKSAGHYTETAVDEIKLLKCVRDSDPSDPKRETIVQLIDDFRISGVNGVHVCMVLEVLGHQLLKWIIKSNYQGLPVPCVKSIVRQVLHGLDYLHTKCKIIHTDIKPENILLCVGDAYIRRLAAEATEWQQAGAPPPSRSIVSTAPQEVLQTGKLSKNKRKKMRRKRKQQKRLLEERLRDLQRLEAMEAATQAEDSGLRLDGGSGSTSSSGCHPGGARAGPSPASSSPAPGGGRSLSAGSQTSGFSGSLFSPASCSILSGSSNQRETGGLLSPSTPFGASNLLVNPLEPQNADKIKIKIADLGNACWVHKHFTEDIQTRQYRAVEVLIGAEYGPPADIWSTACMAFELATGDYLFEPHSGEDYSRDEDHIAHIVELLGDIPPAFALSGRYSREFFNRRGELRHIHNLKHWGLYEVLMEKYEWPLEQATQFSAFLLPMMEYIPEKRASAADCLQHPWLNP
Method: as §1, §2, §3, §4, §5
as §4, with “<35%” for “<30%”, “35%).” for “30%).”

TTK [2] = target: T10, TTK (Homo sapiens, UniProt P33981); experiment: TTK enzyme activity, ADP-Glo kinase assay; assay type: biochemical; design: purchased SignalChem T20-10G; conditions: purified human TTK, ATP 10 μM, 25° C., 2 hours
T10 sequence (P33981 1-857): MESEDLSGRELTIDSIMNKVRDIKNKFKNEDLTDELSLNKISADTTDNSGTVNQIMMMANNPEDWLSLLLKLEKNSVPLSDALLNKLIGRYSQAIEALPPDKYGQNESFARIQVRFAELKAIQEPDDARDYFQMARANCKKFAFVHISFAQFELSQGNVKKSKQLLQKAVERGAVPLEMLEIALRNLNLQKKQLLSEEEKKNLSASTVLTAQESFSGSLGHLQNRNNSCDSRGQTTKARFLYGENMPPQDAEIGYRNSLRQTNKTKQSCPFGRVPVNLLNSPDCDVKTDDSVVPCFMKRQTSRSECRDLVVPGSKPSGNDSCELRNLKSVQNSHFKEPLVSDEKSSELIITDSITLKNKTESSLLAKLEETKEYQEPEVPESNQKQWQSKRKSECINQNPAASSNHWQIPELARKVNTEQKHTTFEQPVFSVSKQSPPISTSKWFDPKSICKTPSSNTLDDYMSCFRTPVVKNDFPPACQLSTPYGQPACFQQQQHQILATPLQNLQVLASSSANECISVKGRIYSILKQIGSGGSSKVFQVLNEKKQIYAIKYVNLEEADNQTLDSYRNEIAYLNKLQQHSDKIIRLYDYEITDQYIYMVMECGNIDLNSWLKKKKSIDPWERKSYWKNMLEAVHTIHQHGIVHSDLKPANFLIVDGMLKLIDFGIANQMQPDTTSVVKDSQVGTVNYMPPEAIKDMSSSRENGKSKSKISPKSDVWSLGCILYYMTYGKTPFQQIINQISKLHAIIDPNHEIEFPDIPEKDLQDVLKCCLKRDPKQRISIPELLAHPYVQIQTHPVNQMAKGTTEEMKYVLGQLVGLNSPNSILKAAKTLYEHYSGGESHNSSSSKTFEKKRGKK
How it was run: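 ADP-Glo read-out; percent inhibition at each compound concentration was relative to the solvent-only control. The reactions contained 25 ng enzyme, 0.2 μg substrate and 10 μM ATP in 40 mM Tris-HCl pH 7.4 with 20 mM MgCl2, 0.5 mg/mL BSA and 50 μM DTT, and ran 2 h at 25 °C.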

LRRK2 = LRRK2 (Homo sapiens, UniProt Q5S007); experiment: ScanMAX Kinase panel (DiscoverX); assay type: binding; design: purchased DiscoverX Corp. (ScanMAX Kinase panel, commissioned); conditions: read-out: % Cont @ 1 μM
Chain of LRRK2 (Q5S007 whole entry): as the sequence (Q5S007 whole entry G2019S) above, with S2019G counted along it
Method: as §1, §2, §3, §4, §5
as §4, with “<35%” for “<30%”, “35%).” for “30%).”

TTK [3] = target: T10, TTK; experiment: ScanMAX Kinase panel (DiscoverX); assay type: binding; design: purchased DiscoverX Corp. (ScanMAX Kinase panel, commissioned); conditions: read-out: % Cont @ 1 μM
Method: as §1, §2, §3, §4, §5
as §4, with “<35%” for “<30%”, “35%).” for “30%).”

T1 sequence (P00519 whole entry F317L): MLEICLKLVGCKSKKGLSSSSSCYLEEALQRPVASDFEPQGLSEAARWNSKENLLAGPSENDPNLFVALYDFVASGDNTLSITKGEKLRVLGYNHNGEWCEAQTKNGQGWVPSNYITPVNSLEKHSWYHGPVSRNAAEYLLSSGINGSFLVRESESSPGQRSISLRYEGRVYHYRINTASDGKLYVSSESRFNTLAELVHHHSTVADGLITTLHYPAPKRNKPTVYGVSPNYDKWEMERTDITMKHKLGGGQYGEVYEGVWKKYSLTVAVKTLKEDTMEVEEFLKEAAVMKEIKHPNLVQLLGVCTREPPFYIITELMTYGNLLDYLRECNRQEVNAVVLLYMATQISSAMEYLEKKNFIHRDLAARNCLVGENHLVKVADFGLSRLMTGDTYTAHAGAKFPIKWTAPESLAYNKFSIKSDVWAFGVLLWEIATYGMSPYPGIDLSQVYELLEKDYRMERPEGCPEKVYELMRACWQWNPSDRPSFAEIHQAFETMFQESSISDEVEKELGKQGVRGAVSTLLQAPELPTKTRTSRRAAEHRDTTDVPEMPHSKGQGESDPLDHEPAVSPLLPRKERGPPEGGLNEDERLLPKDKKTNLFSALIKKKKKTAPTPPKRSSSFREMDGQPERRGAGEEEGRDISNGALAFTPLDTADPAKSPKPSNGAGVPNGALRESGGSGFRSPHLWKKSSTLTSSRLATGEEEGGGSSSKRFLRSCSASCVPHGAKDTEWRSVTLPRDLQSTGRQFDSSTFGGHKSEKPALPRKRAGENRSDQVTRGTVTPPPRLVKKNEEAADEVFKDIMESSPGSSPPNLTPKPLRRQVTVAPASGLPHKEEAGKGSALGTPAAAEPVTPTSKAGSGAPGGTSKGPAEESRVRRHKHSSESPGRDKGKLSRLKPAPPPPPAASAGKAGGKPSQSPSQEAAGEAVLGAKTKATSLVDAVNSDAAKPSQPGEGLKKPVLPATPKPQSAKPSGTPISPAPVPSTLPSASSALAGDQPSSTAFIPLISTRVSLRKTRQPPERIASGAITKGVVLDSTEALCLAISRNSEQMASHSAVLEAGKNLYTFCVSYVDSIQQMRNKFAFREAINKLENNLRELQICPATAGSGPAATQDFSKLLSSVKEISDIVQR

Row | Compound | remaining binding at 1 µM [1] | remaining binding at 1 µM (GRK4) | % Cont @ 1 μM (JNK1) | % Cont @ 1 μM (JNK2) | % Cont @ 1 μM (JNK3) | percent of control (kinase binding) at 1 µM (LRRK2(G2019S)) | remaining binding at 1 µM (MAPKAPK2) | percent of control binding at 1 µM (RIPK5) | remaining binding at 1 µM (SRPK3) | pIC50 (TTK [2]) | percent of control binding at 1 µM (LRRK2) | percent of control at 1 µM (TTK [3])
1 | COc1cc(N2CCCC2=O)ccc1Nc1cc(NC2CCCCC2)c2c(C#N)c[nH]c2n1 [Example 64, 4-(cyclohexylamino)-6-((2-methoxy-4-(2-oxopyrrolidin-1-yl)phenyl)amino)-1H-pyrrolo[2,3-b] pyridine-3-carbonitrile] | 26% | 26% | 0.9% | 4.1% | 1.7% | 17% | 28% | 30% | 28% | > 7.30 | 14% | 0.25%
2 | COc1cc(-c2ccnn2C)ccc1Nc1nc(NC2CCCCC2)c2c(C#N)c[nH]c2n1 [Example 7, 4-(cyclohexylamino)-2-((2-methoxy-4-(1-methyl-1H-pyrazol-5-yl)phenyl)amino)-7H-pyrrolo[2,3-d] pyrimidine-5-carbonitrile] | 28% | 29% | 2% | 13% | 4.3% | 2.7% | 28% | 17% | 30% | > 7.30 | 4.8% | 0.25%
